In ChEMBL document CHEMBL1201862, “PubChem BioAssay data set” (2004):
Active and inactive are the calls of the source.

Legend:
[1] = fluconazole-exposed Candida albicans growth modulators – fluorescence, retest, confirmation (AID 2467); type: functional, cell-based
[2] = target: Intestinal-type alkaline phosphatase (Mus musculus, UniProt P24822); experiment: PubChem AID 488785; type: functional
[3] = target: DNA dC->dU-editing enzyme APOBEC-3G (Homo sapiens, UniProt Q9HC16); experiment: Dose Response confirmation of small molecule APOBEC3G DNA Deaminase Inhibitors via a fluorescence-based single-stranded DNA deaminase assay. [Related pubchem assays (depositor defined):AID493012, AID493028]; type: functional
Albumin = Albumin (Bos taurus, UniProt P02769); experiment: Counterscreen for inhibitors of T-cell receptor (TCR)-CD3 interaction: Fluorescence-based biochemical high throughput dose response assay to identify inhibitors of T-cell receptor (TCR)-CD3 interaction using a TAMRA-labeled BSA probe.; type: functional
Large T antigen = Large T antigen (Simian virus 40, UniProt P03070); type: functional, Betapolyomavirus macacae;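 also: Confirmatory-stage PubChem screen for compounds that inhibit SV40 T antigen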
SUMO-activating enzyme [4] = target: T1, SUMO-activating enzyme (Homo sapiens, UniProt Q9UBT2); experiment: blockers of SAE1/SAE2–UBC9 SUMO transfer – biochemical, HTRF, uHTS, primary screen (AID 2006); type: protein-complex assay
[5] = target: Intestinal-type alkaline phosphatase (Homo sapiens, UniProt P09923); experiment: inhibition of human intestinal alkaline phosphatase – biochemical, dose response (AID 488876); type: functional
[6] = target: DNA dC->dU-editing enzyme APOBEC-3A (Homo sapiens, UniProt P31941); experiment: A3A deaminase inhibition for selectivity – biochemical, dose response (AID 504722); type: functional
SUMO-activating enzyme [7] = target: T1, SUMO-activating enzyme; experiment: blockers of UBC9-mediated SUMO conjugation – biochemical, AlphaScreen, SUMOylation inhibitor project, confirmation (AID 2018); type: functional
[8] = NIH-3T3 fibroblast cytotoxicity, dose response, cytotoxicity control, cell-based, fluorescence, Alamar Blue, secondary assay (AID 2327); type: functional;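 also: NIH-3T3 mouse fibroblasts cultured with fluconazole at 8 µg/mL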
[9] = target: T2, Alkaline phosphatase, tissue-nonspecific isozyme (Homo sapiens, UniProt P05186); experiment: TNAP enzyme inhibition by screening hits, dose response, selectivity assay for mouse IAP inhibitor project, biochemical, human TNAP, uHTS hits (AID 488906); type: functional
T2 sequence (P05186 whole entry): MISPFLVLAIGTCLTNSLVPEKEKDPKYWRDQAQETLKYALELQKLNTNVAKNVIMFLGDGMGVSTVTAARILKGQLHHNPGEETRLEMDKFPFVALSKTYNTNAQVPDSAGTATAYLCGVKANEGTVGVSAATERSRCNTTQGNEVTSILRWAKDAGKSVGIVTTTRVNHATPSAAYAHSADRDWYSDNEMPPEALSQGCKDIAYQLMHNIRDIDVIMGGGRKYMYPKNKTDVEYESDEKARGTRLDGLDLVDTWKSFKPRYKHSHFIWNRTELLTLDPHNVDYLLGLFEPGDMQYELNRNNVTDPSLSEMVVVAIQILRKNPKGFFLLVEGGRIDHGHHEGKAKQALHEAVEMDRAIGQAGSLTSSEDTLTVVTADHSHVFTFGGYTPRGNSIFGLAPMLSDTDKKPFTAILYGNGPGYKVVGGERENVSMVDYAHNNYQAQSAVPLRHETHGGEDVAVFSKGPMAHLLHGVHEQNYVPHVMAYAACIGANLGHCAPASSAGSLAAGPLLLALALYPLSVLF

[10] = target: T3, Histone-lysine N-methyltransferase NSD2 (Homo sapiens, UniProt O96028); type: biochemical
T3 sequence (O96028 whole entry): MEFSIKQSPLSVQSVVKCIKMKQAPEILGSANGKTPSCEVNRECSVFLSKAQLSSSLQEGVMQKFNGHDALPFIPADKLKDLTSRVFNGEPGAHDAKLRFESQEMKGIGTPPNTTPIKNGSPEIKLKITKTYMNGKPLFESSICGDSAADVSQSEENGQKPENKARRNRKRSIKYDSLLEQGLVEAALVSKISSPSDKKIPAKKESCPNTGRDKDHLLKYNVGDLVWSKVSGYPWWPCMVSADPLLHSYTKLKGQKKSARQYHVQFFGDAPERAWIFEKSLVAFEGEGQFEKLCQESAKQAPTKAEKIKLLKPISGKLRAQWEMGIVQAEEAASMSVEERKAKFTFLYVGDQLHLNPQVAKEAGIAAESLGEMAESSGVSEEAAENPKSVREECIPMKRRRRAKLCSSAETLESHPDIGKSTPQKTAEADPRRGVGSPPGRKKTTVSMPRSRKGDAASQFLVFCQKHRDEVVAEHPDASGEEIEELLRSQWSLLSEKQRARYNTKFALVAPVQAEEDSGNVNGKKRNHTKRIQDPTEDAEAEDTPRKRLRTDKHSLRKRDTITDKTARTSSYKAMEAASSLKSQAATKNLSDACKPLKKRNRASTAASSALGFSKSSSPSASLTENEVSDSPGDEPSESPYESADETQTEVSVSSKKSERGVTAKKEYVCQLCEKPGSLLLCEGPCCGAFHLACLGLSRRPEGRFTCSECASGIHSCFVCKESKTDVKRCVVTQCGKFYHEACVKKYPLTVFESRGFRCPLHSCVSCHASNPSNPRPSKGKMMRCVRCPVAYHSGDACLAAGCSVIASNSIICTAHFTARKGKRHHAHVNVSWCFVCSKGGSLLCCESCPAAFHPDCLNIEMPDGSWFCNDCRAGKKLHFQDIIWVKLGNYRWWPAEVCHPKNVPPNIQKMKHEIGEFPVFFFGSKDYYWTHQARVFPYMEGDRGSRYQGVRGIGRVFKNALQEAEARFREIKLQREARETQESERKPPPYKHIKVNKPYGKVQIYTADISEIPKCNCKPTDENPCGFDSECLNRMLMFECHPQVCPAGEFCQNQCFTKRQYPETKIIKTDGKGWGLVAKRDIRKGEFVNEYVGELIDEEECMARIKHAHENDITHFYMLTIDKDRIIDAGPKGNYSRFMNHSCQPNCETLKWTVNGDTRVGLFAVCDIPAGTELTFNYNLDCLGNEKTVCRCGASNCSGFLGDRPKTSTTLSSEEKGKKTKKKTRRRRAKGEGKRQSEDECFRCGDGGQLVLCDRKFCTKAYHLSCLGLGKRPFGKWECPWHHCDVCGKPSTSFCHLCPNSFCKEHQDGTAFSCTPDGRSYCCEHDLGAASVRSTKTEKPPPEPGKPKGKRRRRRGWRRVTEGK

[11] = target: T4, G-protein coupled receptor 35 (Homo sapiens, UniProt Q9HC97); experiment: SAR analysis of Agonists of the GPR35 Receptor using an Image-Based Assay - Set 2. [Related pubchem assays (depositor defined):AID2013, AID2026]; type: functional
[12] = target: T5, G-protein coupled receptor 55 (Homo sapiens, UniProt Q9Y2T6); experiment: blockade of LPI-induced GPR55 arrestin translocation – imaging, U2OS, beta-arrestin-GFP, LPI agonist, set 2, SAR follow-up (AID 2820); type: functional
[13] = target: T4, G-protein coupled receptor 35; experiment: SAR analysis of Antagonists of the GPR35 Receptor using an Image-Based Assay - Set 3. [Related pubchem assays (depositor defined):AID2013, AID2026]; type: functional
Cannabinoid receptor 2 [14] = target: T6, Cannabinoid receptor 2 (Homo sapiens, UniProt P34972); experiment: SAR analysis of antagonists of the Cannabinoid Receptor 2 using an Image-Based Assay. [Related pubchem assays (depositor defined):AID2013, AID2026]; type: functional
Cannabinoid receptor 1 [15] = target: T7, Cannabinoid receptor 1 (Homo sapiens, UniProt P21554); experiment: SAR analysis of antagonists of the Cannabinoid Receptor 1 using an Image-Based Assay - Set 2. [Related pubchem assays (depositor defined):AID2013, AID2026]; type: functional
Cannabinoid receptor 1 [16] = target: T7, Cannabinoid receptor 1; experiment: SAR analysis of agonists of the Cannabinoid Receptor 1 using an Image-Based Assay - Set 2. [Related pubchem assays (depositor defined):AID2013, AID2026]; type: functional
[17] = target: T5, G-protein coupled receptor 55; experiment: inhibition of LPI-stimulated GPR55 beta-arrestin translocation – imaging, U2OS, beta-arrestin-GFP, LPI agonist, primary screen (AID 2013); type: functional;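 also: antagonist potency measured as reduced agonist-driven arrestin aggregation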
Cannabinoid receptor 2 [18] = target: T6, Cannabinoid receptor 2; experiment: SAR analysis of agonists of the Cannabinoid Receptor 2 using an Image-Based Assay. [Related pubchem assays (depositor defined):AID2013, AID2026]; type: functional
[19] = target: T8, Replicative DNA helicase DnaB (Mycobacterium tuberculosis, UniProt P9WMR3); experiment: DnaB Intein secondary assay Measured in Biochemical System Using Plate Reader - 2047-04_Inhibitor_Dose_DryPowder_Activity. [Related pubchem assays (depositor defined):AID2223]
T8 sequence (P9WMR3 whole entry): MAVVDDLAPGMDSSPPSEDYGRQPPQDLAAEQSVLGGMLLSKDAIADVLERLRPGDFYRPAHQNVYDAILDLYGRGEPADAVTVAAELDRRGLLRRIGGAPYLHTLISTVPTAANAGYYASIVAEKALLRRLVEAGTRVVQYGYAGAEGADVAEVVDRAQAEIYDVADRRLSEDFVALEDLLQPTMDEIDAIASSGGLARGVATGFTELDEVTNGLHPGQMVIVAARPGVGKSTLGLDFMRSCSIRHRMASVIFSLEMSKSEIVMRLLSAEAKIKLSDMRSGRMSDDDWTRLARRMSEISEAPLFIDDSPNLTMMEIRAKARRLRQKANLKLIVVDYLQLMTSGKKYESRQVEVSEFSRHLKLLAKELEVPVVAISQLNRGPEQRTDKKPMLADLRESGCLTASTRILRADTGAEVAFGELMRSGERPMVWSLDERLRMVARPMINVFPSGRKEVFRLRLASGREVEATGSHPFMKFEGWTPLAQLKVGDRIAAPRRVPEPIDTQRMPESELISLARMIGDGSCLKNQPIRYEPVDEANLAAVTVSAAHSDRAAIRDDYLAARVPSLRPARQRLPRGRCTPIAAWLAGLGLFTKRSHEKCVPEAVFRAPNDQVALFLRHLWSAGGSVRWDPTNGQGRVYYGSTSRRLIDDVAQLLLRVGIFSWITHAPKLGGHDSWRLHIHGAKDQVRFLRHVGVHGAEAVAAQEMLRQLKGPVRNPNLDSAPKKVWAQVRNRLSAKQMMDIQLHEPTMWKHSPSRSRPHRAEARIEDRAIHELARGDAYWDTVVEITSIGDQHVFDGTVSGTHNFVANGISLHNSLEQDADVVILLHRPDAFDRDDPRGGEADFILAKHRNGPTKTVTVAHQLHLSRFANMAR

Protein RecA [20] = target: T9, Protein RecA (Mycobacterium tuberculosis, UniProt P9WHJ3); experiment: GFP-RecA MOA-DTT Measured in Biochemical System Using Plate Reader - 2047-05_Inhibitor_Dose_DryPowder_Activity. [Related pubchem assays (depositor defined):AID2223]; parameters: species or system Mycobacterium tuberculosis H37Rv
T9 sequence (P9WHJ3 whole entry): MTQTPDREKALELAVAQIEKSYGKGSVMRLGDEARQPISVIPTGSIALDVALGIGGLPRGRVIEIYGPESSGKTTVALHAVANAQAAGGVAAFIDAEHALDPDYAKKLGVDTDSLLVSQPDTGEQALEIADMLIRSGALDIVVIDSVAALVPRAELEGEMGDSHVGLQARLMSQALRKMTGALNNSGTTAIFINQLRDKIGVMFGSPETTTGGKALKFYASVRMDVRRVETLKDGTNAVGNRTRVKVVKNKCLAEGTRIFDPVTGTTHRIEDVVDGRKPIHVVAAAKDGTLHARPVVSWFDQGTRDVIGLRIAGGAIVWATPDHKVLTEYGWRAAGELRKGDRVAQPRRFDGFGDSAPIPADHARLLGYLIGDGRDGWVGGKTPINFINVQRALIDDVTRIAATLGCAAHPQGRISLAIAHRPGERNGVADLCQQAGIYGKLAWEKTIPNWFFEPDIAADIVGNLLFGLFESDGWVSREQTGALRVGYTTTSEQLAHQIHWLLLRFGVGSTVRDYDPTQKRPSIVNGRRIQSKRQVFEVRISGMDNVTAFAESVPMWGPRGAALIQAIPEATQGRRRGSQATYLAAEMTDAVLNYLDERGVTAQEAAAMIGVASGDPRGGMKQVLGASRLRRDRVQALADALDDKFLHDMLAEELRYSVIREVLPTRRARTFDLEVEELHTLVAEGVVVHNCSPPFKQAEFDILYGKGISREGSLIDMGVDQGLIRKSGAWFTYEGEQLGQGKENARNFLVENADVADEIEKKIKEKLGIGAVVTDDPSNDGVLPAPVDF

Protein RecA [21] = target: T9, Protein RecA; experiment: RecA Intein Measured in Biochemical System Using Plate Reader - 2047-02_Inhibitor_Dose_DryPowder_Activity. [Related pubchem assays (depositor defined):AID2223]; parameters: species or system Mycobacterium tuberculosis H37Rv

T5 sequence (Q9Y2T6 whole entry): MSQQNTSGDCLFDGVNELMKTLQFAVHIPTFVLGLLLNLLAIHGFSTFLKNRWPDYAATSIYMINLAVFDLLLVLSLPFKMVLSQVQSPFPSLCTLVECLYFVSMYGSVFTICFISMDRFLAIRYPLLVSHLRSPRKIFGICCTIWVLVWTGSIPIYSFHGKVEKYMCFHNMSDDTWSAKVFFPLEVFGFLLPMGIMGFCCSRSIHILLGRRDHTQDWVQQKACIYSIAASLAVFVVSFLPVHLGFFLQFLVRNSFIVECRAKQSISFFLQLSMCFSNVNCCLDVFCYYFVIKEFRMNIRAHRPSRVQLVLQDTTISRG
T1 sequence (Q9UBE0 whole entry): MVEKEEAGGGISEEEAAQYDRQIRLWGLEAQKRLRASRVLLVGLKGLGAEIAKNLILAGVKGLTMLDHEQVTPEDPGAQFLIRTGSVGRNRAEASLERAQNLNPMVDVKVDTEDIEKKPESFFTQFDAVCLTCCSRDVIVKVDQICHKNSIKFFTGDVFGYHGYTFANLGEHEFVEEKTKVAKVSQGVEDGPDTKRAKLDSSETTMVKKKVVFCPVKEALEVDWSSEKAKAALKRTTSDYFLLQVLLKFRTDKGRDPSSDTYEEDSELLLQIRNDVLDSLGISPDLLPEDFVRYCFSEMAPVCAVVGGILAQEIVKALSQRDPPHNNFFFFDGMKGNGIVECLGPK
T1 sequence (Q9UBT2 whole entry): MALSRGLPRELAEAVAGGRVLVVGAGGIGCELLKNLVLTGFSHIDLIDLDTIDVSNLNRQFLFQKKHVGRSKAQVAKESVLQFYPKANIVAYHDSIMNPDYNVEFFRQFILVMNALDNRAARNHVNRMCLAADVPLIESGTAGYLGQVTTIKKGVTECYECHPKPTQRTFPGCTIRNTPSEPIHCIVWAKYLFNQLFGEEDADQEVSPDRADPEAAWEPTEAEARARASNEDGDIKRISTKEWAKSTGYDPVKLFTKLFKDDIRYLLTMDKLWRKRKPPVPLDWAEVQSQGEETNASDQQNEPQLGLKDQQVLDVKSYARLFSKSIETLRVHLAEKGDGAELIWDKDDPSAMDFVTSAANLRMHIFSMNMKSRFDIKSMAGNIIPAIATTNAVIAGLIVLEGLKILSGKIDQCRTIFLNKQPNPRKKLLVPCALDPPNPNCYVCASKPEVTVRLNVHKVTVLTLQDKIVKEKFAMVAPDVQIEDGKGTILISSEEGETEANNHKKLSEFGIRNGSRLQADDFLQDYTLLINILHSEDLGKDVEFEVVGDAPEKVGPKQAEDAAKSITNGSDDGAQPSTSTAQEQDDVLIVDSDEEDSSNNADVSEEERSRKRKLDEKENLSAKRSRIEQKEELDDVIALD
T6 sequence (P34972 whole entry): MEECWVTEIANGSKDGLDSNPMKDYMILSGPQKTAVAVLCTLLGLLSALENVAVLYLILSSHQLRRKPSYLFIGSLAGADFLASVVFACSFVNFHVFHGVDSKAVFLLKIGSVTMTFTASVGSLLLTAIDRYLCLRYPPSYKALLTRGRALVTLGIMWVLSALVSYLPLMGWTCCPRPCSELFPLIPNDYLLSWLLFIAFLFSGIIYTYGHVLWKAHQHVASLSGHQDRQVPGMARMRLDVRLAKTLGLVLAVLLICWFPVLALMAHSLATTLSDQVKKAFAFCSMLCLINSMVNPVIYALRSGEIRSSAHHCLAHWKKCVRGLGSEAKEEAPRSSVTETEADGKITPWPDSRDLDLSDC
T7 sequence (P21554 whole entry): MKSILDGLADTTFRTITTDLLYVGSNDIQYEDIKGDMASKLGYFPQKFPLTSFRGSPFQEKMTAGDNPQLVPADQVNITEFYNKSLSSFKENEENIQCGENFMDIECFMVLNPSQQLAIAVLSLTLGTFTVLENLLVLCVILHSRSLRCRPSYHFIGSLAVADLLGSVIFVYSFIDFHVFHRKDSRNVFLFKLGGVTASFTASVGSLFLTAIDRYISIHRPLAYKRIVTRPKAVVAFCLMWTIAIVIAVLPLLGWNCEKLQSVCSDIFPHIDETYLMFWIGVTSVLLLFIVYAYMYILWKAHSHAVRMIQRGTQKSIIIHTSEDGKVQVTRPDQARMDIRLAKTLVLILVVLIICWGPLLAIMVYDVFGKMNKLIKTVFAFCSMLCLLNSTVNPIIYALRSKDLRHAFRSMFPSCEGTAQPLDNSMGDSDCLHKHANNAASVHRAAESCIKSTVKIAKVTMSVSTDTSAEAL
T4 sequence (Q9HC97 whole entry): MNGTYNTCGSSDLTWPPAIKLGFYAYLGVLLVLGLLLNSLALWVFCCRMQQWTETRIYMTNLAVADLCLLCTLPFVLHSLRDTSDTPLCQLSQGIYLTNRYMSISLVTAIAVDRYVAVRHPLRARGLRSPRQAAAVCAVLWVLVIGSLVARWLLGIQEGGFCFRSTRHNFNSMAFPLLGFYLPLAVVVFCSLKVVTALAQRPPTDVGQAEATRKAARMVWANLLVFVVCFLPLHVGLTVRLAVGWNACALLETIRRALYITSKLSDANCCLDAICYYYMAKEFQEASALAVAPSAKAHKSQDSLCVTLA
Albumin, sequence (P02769 whole entry): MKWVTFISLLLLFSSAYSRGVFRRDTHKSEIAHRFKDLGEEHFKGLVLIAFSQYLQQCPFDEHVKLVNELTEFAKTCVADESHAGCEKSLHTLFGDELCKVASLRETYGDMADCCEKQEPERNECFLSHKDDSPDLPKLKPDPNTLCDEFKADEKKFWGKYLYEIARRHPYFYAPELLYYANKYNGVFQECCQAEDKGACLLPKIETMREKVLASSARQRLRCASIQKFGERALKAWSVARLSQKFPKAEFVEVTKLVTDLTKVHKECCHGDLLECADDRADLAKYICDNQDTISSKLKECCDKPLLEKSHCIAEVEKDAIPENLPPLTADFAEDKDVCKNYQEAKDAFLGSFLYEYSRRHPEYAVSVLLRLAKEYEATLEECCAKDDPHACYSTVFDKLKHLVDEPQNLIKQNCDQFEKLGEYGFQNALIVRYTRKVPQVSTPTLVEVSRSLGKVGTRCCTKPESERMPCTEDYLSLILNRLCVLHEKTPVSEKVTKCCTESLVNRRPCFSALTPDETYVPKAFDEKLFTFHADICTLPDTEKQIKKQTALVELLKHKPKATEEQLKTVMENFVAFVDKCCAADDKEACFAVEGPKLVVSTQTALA
Intestinal-type alkaline phosphatase (Homo sapiens, UniProt P09923), sequence (P09923 whole entry): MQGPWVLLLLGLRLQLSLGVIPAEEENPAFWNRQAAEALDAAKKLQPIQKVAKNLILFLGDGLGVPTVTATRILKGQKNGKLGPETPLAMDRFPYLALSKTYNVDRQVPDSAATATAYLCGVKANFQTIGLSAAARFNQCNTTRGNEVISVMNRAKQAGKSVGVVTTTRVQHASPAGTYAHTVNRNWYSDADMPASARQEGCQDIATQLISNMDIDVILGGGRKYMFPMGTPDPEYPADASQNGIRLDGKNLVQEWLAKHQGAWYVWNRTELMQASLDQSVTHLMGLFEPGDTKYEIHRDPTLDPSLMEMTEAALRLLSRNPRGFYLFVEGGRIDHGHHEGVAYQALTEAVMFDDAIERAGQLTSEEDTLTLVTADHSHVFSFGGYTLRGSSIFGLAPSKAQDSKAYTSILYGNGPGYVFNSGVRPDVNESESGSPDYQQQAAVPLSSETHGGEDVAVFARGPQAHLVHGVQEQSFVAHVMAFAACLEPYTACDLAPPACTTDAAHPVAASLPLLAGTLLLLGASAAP
Intestinal-type alkaline phosphatase (Mus musculus, UniProt P24822), sequence (P24822 whole entry): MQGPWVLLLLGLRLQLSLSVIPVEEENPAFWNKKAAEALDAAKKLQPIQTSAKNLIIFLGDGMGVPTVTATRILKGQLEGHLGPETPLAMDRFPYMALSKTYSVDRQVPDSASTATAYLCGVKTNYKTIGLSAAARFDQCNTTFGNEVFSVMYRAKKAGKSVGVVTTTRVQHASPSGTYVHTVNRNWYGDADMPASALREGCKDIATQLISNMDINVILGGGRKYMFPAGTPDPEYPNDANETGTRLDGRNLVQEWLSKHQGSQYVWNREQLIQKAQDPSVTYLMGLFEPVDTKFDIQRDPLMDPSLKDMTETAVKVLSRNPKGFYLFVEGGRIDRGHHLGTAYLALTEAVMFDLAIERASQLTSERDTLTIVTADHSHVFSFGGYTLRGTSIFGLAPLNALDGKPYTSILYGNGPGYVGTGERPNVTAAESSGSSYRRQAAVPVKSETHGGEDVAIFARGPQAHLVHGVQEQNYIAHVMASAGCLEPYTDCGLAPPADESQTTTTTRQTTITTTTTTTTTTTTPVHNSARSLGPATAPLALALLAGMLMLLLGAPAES
Large T antigen, sequence (P03070 whole entry): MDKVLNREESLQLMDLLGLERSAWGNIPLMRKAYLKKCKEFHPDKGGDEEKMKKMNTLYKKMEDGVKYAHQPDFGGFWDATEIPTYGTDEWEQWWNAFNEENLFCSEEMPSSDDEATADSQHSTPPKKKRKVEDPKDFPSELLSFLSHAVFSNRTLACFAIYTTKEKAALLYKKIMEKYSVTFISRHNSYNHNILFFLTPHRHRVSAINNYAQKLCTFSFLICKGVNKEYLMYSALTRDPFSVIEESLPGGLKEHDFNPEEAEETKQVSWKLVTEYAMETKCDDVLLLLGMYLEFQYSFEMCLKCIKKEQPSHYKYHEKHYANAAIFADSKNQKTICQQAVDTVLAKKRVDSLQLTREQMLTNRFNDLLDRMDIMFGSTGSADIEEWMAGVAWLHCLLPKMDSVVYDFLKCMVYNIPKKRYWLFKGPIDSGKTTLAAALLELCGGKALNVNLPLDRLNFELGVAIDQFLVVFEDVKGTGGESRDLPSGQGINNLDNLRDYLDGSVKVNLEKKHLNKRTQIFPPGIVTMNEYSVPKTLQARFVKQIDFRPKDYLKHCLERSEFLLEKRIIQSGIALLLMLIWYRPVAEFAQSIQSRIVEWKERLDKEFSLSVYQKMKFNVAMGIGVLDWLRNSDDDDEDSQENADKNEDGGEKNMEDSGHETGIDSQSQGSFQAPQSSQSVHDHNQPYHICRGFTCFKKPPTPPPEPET

SMILES: N#C/C(=C\c1ccc(O)c(O)c1)C(=O)Nc1cccc2ncccc12
- EC50 [1]: > 38 µM (not active)
- IC50 [2]: 14.3 µM (active)
- IC50 [3]: 3.81 µM (active)
- IC50 (Albumin): > 94 µM (inactive)
- IC50 (Large T antigen): 27.8 µM (active)
- IC50 (SUMO-activating enzyme [4]): 21.4 µM (active)
- IC50 [5]: 12.5 µM (active)
- IC50 [6]: > 100 µM (inactive)
- IC50 (SUMO-activating enzyme [7]): 1.27 µM (active)
- EC50 [8]: > 150 µM (inactive)
- IC50 [9]: 34.6 µM (active)
- AC50 [10]: 3.18 µM (active)

SMILES: COC(=O)C1=C(N)c2c(F)cccc2C1(C#N)c1ccc(F)cc1 (stereo not drawn)
- EC50 [11]: > 32 µM (inactive)
- IC50 [12]: 1.14 µM (active)
- IC50 [13]: > 32 µM (inactive)
- IC50 (Cannabinoid receptor 2 [14]): > 32 µM (inactive)
- IC50 (Cannabinoid receptor 1 [15]): 30.7 µM (inactive)
- EC50 (Cannabinoid receptor 1 [16]): > 32 µM (inactive)
- IC50 [17]: 1.26 µM (active)
- EC50 (Cannabinoid receptor 2 [18]): > 32 µM (inactive)

SMILES: Cc1oc2c(c1C(=O)NCc1ccccn1)C(=O)c1ccccc1C2=O
- AC50 [19]: 1.07 µM (active)
- AC50 (Protein RecA [20]): 9.92 µM (active)
- AC50 (Protein RecA [21]): 0.074 µM (active)
